Experimental data published in patent EP0605261B1, “Use of a flavone derivative as taste modifier and a method of modifying taste” (SAN-EI GEN F.F.I., INC., priority 1992, dated 1994).

Legend:
[1] = Sensory test: savor (hard candy); type: in vivo; details: hard candy with Aspartame; 0.0001 w/w%; 10 panellers
Protocol: Compound 10 of the flavone derivative (I) was used as a taste modifier, and 22.5 w/w% thick malt syrup of reducing maltose, 22.5 w/w% reducing starch saccharide and 0.08 w/w% of Aspartame were used as sweetening agents. In accordance with a general method, hard candy containing 0.0001 w/w% of the flavone derivative (I) and flavone derivative (I) free hard candy were prepared. Sensory tests for the savor were conducted by 10 panellers comprised of 6 males and 4 females at the age from 20 to 40.

[2] = Sensory test (limiting method): enhancing the sourness of acid sugar solution; type: in vivo; set-up: key: (equivalent citric acid content / citric acid content with flavone) × 100; details: citric acid 1.000 (g), flavone derivative (I) 0.00001 (g), 8 panellers
Protocol: Compounds 1 to 11 of the flavone derivative (I) were used as a taste modifier to prepare acid sugar solution having compositions as follows:
As a control, 21 types of acid sugar solutions are used. In the control, the flavone derivative (I) is removed from the above composition and the content of citric acid is varied from 1.000 g to 1.500 g by 0.025 g.
Sensory tests were carried out by 8 trained panellers in accordance with a limiting method described in the Hand Book of Sensory evaluation, edited by Research Committee of sensory evaluation, Union of Japanese Scientists and Engineers, p.398 (1973) in use of acid sugar solutions containing respective flavone derivatives (I) and another acid sugar solutions having a various content of citric acid.
As for the content of citric acid, two types sensory tests were conducted, one was an ascending system (testing from solution with low concentration) and another was a descending system (testing from solution with high concentration).
The sensory evaluation was made by a value of enhancing the sourness. The value of enhancing the sourness was calculated by the following formula based on the content of citric acid in acid sugar solutions with varied concentration of citric acid, which has an equivalent stimulation with an acid sugar solution containing the flavone derivative (I) Value of enhancing the sourness = (content of citric acid in acid sugar solution sensed as an equivalent stimulation/content of citric acid in acid sugar solution containing the flavone derivative (I)) x 100 [formula]

COc1ccc(-c2cc(=O)c3c(O)c(OC)c(OC)c(OC)c3o2)cc1OC [Compound 10, 5-hydroxy-3',4',6,7,8-pentamethoxyflavone]
the savor, as sensed by all the panellers [1]: better than that of the control | Value of enhancing the sourness Ascending system ([2]; ascending system (from low concentration)): 120 | Value of enhancing the sourness Descending system ([2]; descending system (from high concentration)): 123
